Where a name gives a salt, the structure may show the parent alone. Read-outs that look alike come from different tables or passages of the source.
Experiments:
[1] = target: T1, SARS-CoV-2 PLpro (nsp3 1564–1878) (Severe acute respiratory syndrome coronavirus 2, UniProt P0DTD1); assay: biochemical; set-up: FRET-quenched peptide (Pro3) cleavage by PLpro, 10 min pre-incubation, slope over 20 min, normalised to no-compound control; conditions: low concentration screen, read-out: % of control remaining
[2] = target: T1, SARS-CoV-2 PLpro (nsp3 1564–1878); assay: biochemical; set-up: FRET-quenched peptide (Pro3) cleavage by PLpro, 10 min pre-incubation, slope over 20 min, normalised to no-compound control; conditions: high concentration screen, read-out: % of control remaining

COc1ccc(N2C(=O)/C(=C\c3ccc([N+](=O)[O-])s3)SC2=S)cc1 [CCF642]
remaining activity at 1.25 µM ([1]; Well no.=8774): 93.3% | remaining activity at 3.75 µM ([2]; Well no.=8774): 93.7%

O=C(Nc1cccc(Nc2ncc(Br)c(NCCc3cnc[nH]3)n2)c1)N1CCCC1 [BX912]
remaining activity at 1.25 µM ([1]; Well no.=2979): 95.2% | remaining activity at 3.75 µM ([2]; Well no.=2979): 93.8%

O=C1c2cccc3c2[C@H](CCC3)CN1[C@@H]1CN2CCC1CC2 [Palonosetron (Hydrochloride)]
remaining activity at 1.25 µM ([1]; Well no.=6614): 98.5% | remaining activity at 3.75 µM ([2]; Well no.=6614): 98%

C#Cc1cccc(Nc2ncnc3cc(OC)c(OCCCCCCC(=O)NO)cc23)c1 [CUDC-101]
remaining activity at 1.25 µM ([1]; Well no.=5097): 104% | remaining activity at 3.75 µM ([2]; Well no.=5097): 108%

C=C[C@](C)(O)CC[C@@H]1[C@@]2(C)CCCC(C)(C)[C@@H]2CC[C@@]1(C)O [Sclareol]
remaining activity at 1.25 µM ([1]; Well no.=3388): 91.2% | remaining activity at 3.75 µM ([2]; Well no.=3388): 96.1%

COc1ccccc1NC(=O)Nc1nc(-c2cccnc2)nc2ccccc12 [VUF 5574]
remaining activity at 1.25 µM ([1]; Well no.=1384): 101% | remaining activity at 3.75 µM ([2]; Well no.=1384): 97.5%

CC[C@@]1(O)C(=O)OCc2c1cc1n(c2=O)Cc2cc3ccccc3nc2-1 [(S)-(+)-Camptothecin]
remaining activity at 1.25 µM ([1]; Well no.=483): 100% | remaining activity at 3.75 µM ([2]; Well no.=483): 90.7%

NCCCC[C@@H]1NC(=O)[C@@H](Cc2ccc(O)cc2)NC(=O)[C@H](CC(=O)O)NC(=O)CNC(=O)[C@H](CCCN=C(N)N)NC1=O [Cyclo(RGDyK) trifluoroacetate]
remaining activity at 1.25 µM ([1]; Well no.=8698): 101% | remaining activity at 3.75 µM ([2]; Well no.=8698): 97.8%

c1ccc(-c2cnc(Nc3ccc(OCCN4CCCC4)cc3)s2)cc1 [Flt-3 Inhibitor III]
remaining activity at 1.25 µM ([1]; Well no.=2421): 99.3% | remaining activity at 3.75 µM ([2]; Well no.=2421): 98.8%

CCCn1c(=O)c2c(ncn2C)n(CCC)c1=O [1,3-Dipropyl-7-methylxanthine]
remaining activity at 1.25 µM ([1]; Well no.=448): 102% | remaining activity at 3.75 µM ([2]; Well no.=448): 101%

NC(=O)c1nnn(Cc2cc(Cl)c(C(=O)c3ccc(Cl)cc3)c(Cl)c2)c1N [Carboxyamidotriazole]
remaining activity at 1.25 µM ([1]; Well no.=5819): 94.7% | remaining activity at 3.75 µM ([2]; Well no.=5819): 89.8%

COc1ccc(CN(CCN(C)C)c2ccccn2)cc1 [Pyrilamine maleate]
remaining activity at 1.25 µM ([1]; Well no.=814): 101% | remaining activity at 3.75 µM ([2]; Well no.=814): 104%

O=C1NC(=O)C(c2ccccc2)(c2ccccc2)N1 [Phenytoin]
remaining activity at 1.25 µM ([1]; Well no.=1643): 99.6% | remaining activity at 3.75 µM ([2]; Well no.=1643): 100%

C[N+]1(C)C2CCC1CC(OC(=O)c1c[nH]c3ccccc13)C2 (stereo not shown) [3-Tropanylindole-3-carboxylate methiodide]
remaining activity at 1.25 µM ([1]; Well no.=1520): 91.9% | remaining activity at 3.75 µM ([2]; Well no.=1520): 90.6%

CC[C@H](C)[C@H](NC(=O)[C@@H]1CCCN1C(=O)[C@H](Cc1cnc[nH]1)NC(=O)[C@@H](NC(=O)[C@H](Cc1ccc(O)cc1)NC(=O)[C@@H](NC(=O)[C@H](CCCN=C(N)N)NC(=O)CNC)C(C)C)[C@@H](C)CC)C(=O)O [[Sar1, Ile8]-Angiotensin II (TFA)]
remaining activity at 1.25 µM ([1]; Well no.=7588): 96% | remaining activity at 3.75 µM ([2]; Well no.=7588): 92%

COc1cc2c(cc1OC)CN(C(=O)[C@@H](NCc1ccncc1)C(C)(C)C)CC2 [TCS-OX2-29]
remaining activity at 1.25 µM ([1]; Well no.=6993): 107% | remaining activity at 3.75 µM ([2]; Well no.=6993): 101%

O=C(/C=C/c1ccccc1)NC(NC(=S)Nc1cccc2cccnc12)C(Cl)(Cl)Cl (stereo not shown) [Salubrinal]
remaining activity at 1.25 µM ([1]; Well no.=4877): 98.9% | remaining activity at 3.75 µM ([2]; Well no.=4877): 99.5%

N=C(N)N1CCc2ccccc2C1 [Debrisoquin]
remaining activity at 1.25 µM ([1]; Well no.=1905): 99.9% | remaining activity at 3.75 µM ([2]; Well no.=1905): 99.9%

COc1ccc2c(c1)c(CC(=O)Nc1ccc(NC(C)=O)cc1)c(C)n2C(=O)c1ccc(Cl)cc1 [N-(4-acetamidophenyl)indomethacinamide]
remaining activity at 1.25 µM ([1]; Well no.=343): 98.3% | remaining activity at 3.75 µM ([2]; Well no.=343): 97.9%

O=C(CCCN1CCN(c2ccccn2)CC1)c1ccc(F)cc1 [Azaperone]
remaining activity at 1.25 µM ([1]; Well no.=2163): 100% | remaining activity at 1.25 µM ([1]; Well no.=6471): 102% | remaining activity at 3.75 µM ([2]; Well no.=2163): 103% | remaining activity at 3.75 µM ([2]; Well no.=6471): 101%

CCCCNc1ccc(C(=O)OCCN(C)C)cc1 [Tetracaine hydrochloride]
remaining activity at 1.25 µM ([1]; Well no.=1228): 97.1% | remaining activity at 3.75 µM ([2]; Well no.=1228): 97.5%

CCCCC/C=C\C/C=C\C/C=C\CCCCCCC(=O)O [Dihomo-γ-linolenic acid]
remaining activity at 1.25 µM ([1]; Well no.=4317): 99% | remaining activity at 3.75 µM ([2]; Well no.=4317): 99.1%
